Where two headings read alike, the source gives them in different places. Blank lines part the entries; values can stand above or below the compound they belong to.
Key:
[1] = tested on: primary neurons from rat cerebral cortex; experiment: NMDA-induced LDH release assay in primary cortical neurons (neuroprotection); format: cell-based; settings: for EC50: two experiments, 300 uM NMDA + 50 μM glycine 15 minutes, LDH after 24 hours, read-out: average EC50 (±SD), NMDA-induced LDH release
Protocol: The neuroprotective properties of drugs have been studied in vitro, using neurons cultured from cortex, cerebellum or retina. […] Neurotoxicity is determined in this assay by measuring lactate dehydrogenase (LDH), a method which is simple, accurate and reproducible. We conducted pilot studies to test if poly-lysine-coated plates would be suitable as a matrix upon which to plate fetal neurons, compared to astrocyte-coated plates. We also compared the use of growth medium to neurobasal medium supplemented with B27 in the pilot experiments. The concentrations of NMDA (300-500 μM), glycine (10-50 μM), and memantine (10-100 μM) were varied, and optimum concentrations and times determined from these pilot studies were then chosen for the main study. The assay is described below.
Fetal rat neocortical cells were cultured on a mouse astroglial feeder layer. To obtain mouse astroglial cells for the feeder layer, cortices were harvested from 1-day old Swiss Webster mice (Charles River, Hollister, Calif.) according to the procedure described by Rose et al (1993). After dissecting cortices in ice-cold dissecting medium, they were minced and incubated in 0.09% trypsin in media stock for 1 hr, followed by resuspension in growth medium containing 10% equine serum and 10% fetal bovine serum. A single-cell suspension was obtained by triturating through fire-bored glass pipettes, and the resulting cell suspension was plated at a density of 0.5-0.75 hemispheres/24-well plate/9.6 ml, with 0.4 ml/well. Plates were incubated in a humidified incubator at 37° C., 5% CO2. Astroglial cells become confluent in about 2-3 weeks, at which time these cultures are ready to be used as feeder layers upon which neuronal cultures can be plated. Neuronal cells were obtained from gestational Sprague-Dawley rats E16-E18, using a similar dissection procedure. Rat embryos were dissected to obtain cortical tissue, which was plated as a single-cell suspension at a density of 1.4 hemispheres/24-well plate/9.6 ml, with 0.4 ml/well. These cells were plated on the existing astroglial feeder layer, and were incubated at 37° C., 5% CO2. After 5 days in culture, cytosine arabinoside (10 μM) was added to the wells to inhibit glial cell proliferation, and after 24 hours, the medium was replaced with fresh growth medium. Cells were fed with fresh growth medium every 2 days, until the experiments were performed. For coating plates with poly-lysine, we used poly-d-lysine hydrobromide (Sigma Cat # P7280) at a concentration of 0.1 mg/ml to coat each well using a minimum volume of 0.2 ml/well. After coating for 5 minutes, the solution was aspirated and wells were rinsed thoroughly with sterile tissue culture grade water. After drying for 2 hours, plates were ready for use. Neuronal cultures were plated onto poly-lysine-coated plates at the same density as above. For the pilot study, some of the cultures were fed with 1:1 ratio of growth medium: neurobasal medium (GIBCO)+B-27 supplement (2%), while the rest of the cultures were fed with growth medium alone (Losi et al., 2006). For the main study, we used astroglial feeder layers to plate the neuronal cultures, and used a mix (1:1) of growth medium with neurobasal medium+B-27 supplement for feeding the cultures.
After 11-14 days in culture, neuronal cells were confluent and experiments were performed. Cells were washed twice using sterile Locke's buffer (154 mM NaCl, 5.6 mM KCl, 2.3 mM CaCl2, 3.6 mM NaHCO3, 5.5 mM D-glucose, 5 mM HEPES, pH 7.4), and then exposed to the various treatment compounds. […] After 15 minutes, cultures were washed twice and incubated overnight in media stock. After 24 hours, supernatants and lysates were collected to measure LDH activity. LDH activity was measured by the reduction of NAD, which was utilized in the stoichiometric conversion of a tetrazolium dye using a kit (Sigma TOX-7). Supernatants were removed from the wells and centrifuged before LDH measurements. The adherent cells were lysed to obtain total LDH. […]

NMDA receptor [2] = experiment: [3H]MK-801 binding assay, NMDA receptors in guinea pig brain membranes; settings: for Relative affinity: compared to that of Memantine
Protocol: Hartley guinea pigs were sacrificed, and their brains were quickly removed and weighed. The brains then were homogenized in 50 mM Tris HCl buffer, pH 7.7, using a Polytron homogenizer. The homogenate was centrifuged at 40,000×g for 15 min, rehomogenized, and centrifuged again. The final pellet was resuspended in Tris-HCl, pH 7.7, at a final concentration of 6.67 mg original wet weight of tissue/ml. […] The samples were then filtered through glass fiber filters on a Tomtec cell harvester. The filters were washed 3 times with 3 ml of cold buffer. Filters were dried overnight and counted next day on a Wallac Betaplate Reader.
The binding experiments were conducted as follows. […] For each compound, graphs were prepared containing individual competition curves obtained for that compound. IC50 values and Hill coefficients were calculated using the program Prism. Ki values were calculated using the Chang Prusoff transformation: Ki=IC50/(1+L/Kd)
where L is radioligand concentration and Kd is the binding affinity of the radioligand, as determined previously by saturation analysis. […] In each experiment, one standard compound was simultaneously run on each 96 well plate.

NMDA receptor [3] = experiment: Whole-cell voltage-clamp recordings of NMDA evoked currents in hypocretin neurons (hypothalamic slices); format: cell-based, mouse; settings: bath application, -60 mV, mean±SEM
[4] = [3H]MK-801 (1 nM), guinea pig brain membrane preparation, read-out: Ki (binding affinity)
[5] = guinea pig brain membrane preparation (Table 29), read-out: Ki
[6] = Rattus norvegicus, Primary neuron
[7] = NMDA 300 μM + 10 μM glycine, astrocyte-coated rat neurons, GM/NB + B-27 fed, 21 hour incubation
[8] = NMDA 300 μM + 10 μM glycine, poly-lysine-coated rat neurons, GM/NB + B-27 fed, 40 hour incubation
[9] = NMDA 300 uM + 50 uM glycine, astrocyte-coated rat neurons, GM/NB + B-27 fed, 24 hour incubation
[10] = NMDA 300 uM + glycine 50 uM, Plate #4, poly-lysine-coated rat neurons, GM/NB + B-27 fed, 24 hour incubation
[11] = NMDA 300 uM + glycine 50 uM, Plate #5, astrocyte-coated rat neurons, GM fed, 24 hour incubation
[12] = NMDA 300 μM - 21 hr, astrocyte-coated rat neurons, GM/NB + B-27 fed, 21 hour incubation
[13] = NMDA 300 uM - 40 hr, poly-lysine-coated rat neurons, GM/NB + B-27 fed, 40 hour incubation
[14] = NMDA 500 μM + 10 μM glycine, astrocyte-coated rat neurons, GM/NB + B-27 fed, 21 hour incubation
[15] = NMDA 500 uM + 10 uM glycine, poly-lysine-coated rat neurons, GM/NB + B-27 fed, 40 hour incubation
[16] = NMDA 500 μM - 21 hr, astrocyte-coated rat neurons, GM/NB + B-27 fed, 21 hour incubation
[17] = NMDA 500 uM - 40 hr, poly-lysine-coated rat neurons, GM/NB + B-27 fed, 40 hour incubation

Compound: NC12CC3C4CC5CC3C(C1)C(C5)C4C2 [MDT-3]
Relative affinity (NMDA receptor [2]): 0.021 | Ki (NMDA receptor [2]; [5]): 34.6 ± 3.7 µM | inhibition of the peak amplitude of NMDA evoked currents (NMDA receptor [3]; 10 μM): did not produce inhibition | inhibition of the peak amplitude of NMDA evoked currents (NMDA receptor [3]; 100 μM): did not produce inhibition

Compound: NC12CC3C4CC5(N)CC3C(C1)C(C5)C4C2 [MDT-5]
Relative affinity (NMDA receptor [2]): 0.003 | Ki (NMDA receptor [2]; [5]): 268 ± 19 µM

Compound: 1,6-dimethyl-4-aminodiamantane mixture [MDT-7]
Relative affinity (NMDA receptor [2]): 0.074 | Ki (NMDA receptor [2]; [5]): 9.9 ± 0.45 µM

Compound: OC12CC3CC4C1CC1CC4C(O)(C3)C2C1 [MDT-13]
Ki (NMDA receptor [2]; [5]): > 1000 µM

Compound: CC12CC3CC4C1CC1(N)CC2C(C3)C4(C)C1 [MDT-33, 1,6-dimethyl-4-aminodiamantane]
Relative affinity (NMDA receptor [2]): 0.094 | Ki (NMDA receptor [2]; [5]): 7.8 ± 0.9 µM

Compound: CC12CC3(N)CC4C1CC1CC2C(N)(C3)C4(C)C1 (stereo not shown) [MDT-9, 1,6-dimethyl-2,4-diaminodiamantane]
Relative affinity (NMDA receptor [2]): 0.032 | Ki (NMDA receptor [2]; [5]): 22.5 ± 0.9 µM | inhibition of the peak amplitude of NMDA evoked currents (NMDA receptor [3]; 10 μM): 13.2±9% | inhibition of the peak amplitude of NMDA evoked currents (NMDA receptor [3]; 100 μM): 15.2±4.8%

Compound: NC12CC3CC4C1CC1CC2C(C3)C4(N)C1 [MDT-4]
Relative affinity (NMDA receptor [2]): 0.007 | Ki (NMDA receptor [2]; [5]): 99.6 ± 7.6 µM

Compound: CN[C@H](CC(=O)O)C(=O)O [NMDA]
% (Control Wash = 100) [1, 7]: 144% | Secreted LDH (Avg) [1, 7]: 0.44 | Secreted/(total + secreted) (Avg) [1, 7]: 11.95 | Total LDH (Avg) [1, 7]: 3.25 | % (Control Wash = 100) [1, 8]: 116% | Secreted LDH (Avg) [1, 8]: 0.39 | Secreted/(total + secreted) (Avg) [1, 8]: 13.33 | Total LDH (Avg) [1, 8]: 2.56 | % (Control Wash = 100) [1, 9]: 271% | Secreted LDH (Avg) [1, 9]: 0.76 | Secreted/(total + secreted) (Avg) [1, 9]: 19.61 | Total LDH (Avg) [1, 9]: 3.10 | % (Control Wash = 100) [1, 10]: 163% | Secreted LDH (Avg) [1, 10]: 0.69 | Secreted/(total + secreted) (Avg) [1, 10]: 17.79 | Total LDH (Avg) [1, 10]: 3.19 | % (Control Wash = 100) [1, 11]: 109% | Secreted LDH (Avg) [1, 11]: 0.20 | Secreted/(total + secreted) (Avg) [1, 11]: 6.37 | Total LDH (Avg) [1, 11]: 2.90 | % (Control Wash = 100) [1, 12]: 166% | Secreted LDH (Avg) [1, 12]: 0.52 | Secreted/(total + secreted) (Avg) [1, 12]: 13.82 | Total LDH (Avg) [1, 12]: 3.22 | % (Control Wash = 100) [1, 13]: 127% | Secreted LDH (Avg) [1, 13]: 0.45 | Secreted/(total + secreted) (Avg) [1, 13]: 14.55 | Total LDH (Avg) [1, 13]: 2.61 | % (Control Wash = 100) [1, 14]: 139% | Secreted LDH (Avg) [1, 14]: 0.51 | Secreted/(total + secreted) (Avg) [1, 14]: 11.56 | Total LDH (Avg) [1, 14]: 3.91 | % (Control Wash = 100) [1, 15]: 114% | Secreted LDH (Avg) [1, 15]: 0.44 | Secreted/(total + secreted) (Avg) [1, 15]: 13.07 | Total LDH (Avg) [1, 15]: 2.92 | % (Control Wash = 100) [1, 16]: 147% | Secreted LDH (Avg) [1, 16]: 0.51 | Secreted/(total + secreted) (Avg) [1, 16]: 12.23 | Total LDH (Avg) [1, 16]: 3.65 | % (Control Wash = 100) [1, 17]: 125% | Secreted LDH (Avg) [1, 17]: 0.48 | Secreted/(total + secreted) (Avg) [1, 17]: 14.35 | Total LDH (Avg) [1, 17]: 2.91 | Ki (NMDA receptor [2]; standard compounds at the NMDA site (Table 27), read-out: Ki): 596 µM

Compound: CC12CC3(N)CC4C5CC(CC41)CC2C5C3 (single isomer, unassigned) [MDT-22 (prep from Example 4)]
Relative affinity (NMDA receptor [2]): 0.332 | Ki (NMDA receptor [2]; [5]): 2.2 ± 0.9 µM

Compound: CC12CC3(N)CC4C5CC(CC41)CC2C5C3 (single isomer, unassigned) [MDT-22 (prep from Example 7)]
Relative affinity (NMDA receptor [2]): 0.070 | Ki (NMDA receptor [2]; [5]): 10.5 ± 1 µM

Compound: CC12CC3CC4C1CC1(N)CC2C(C3)C4(C)C1 [MDT-23 (prep from Example 4)]
Relative affinity (NMDA receptor [2]): 0.187 | Ki (NMDA receptor [2]; [5]): 3.9 ± 0.07 µM

Next, values leading:

EC50 [1]: 107 ± 88.3 µM | Ki (NMDA receptor [2]; [4]): 19.1 µM | Relative affinity (NMDA receptor [2]): 0.038
Compound: 2-aminotriamantane [MDT-50]

Ki (NMDA receptor [2]; [5]): > 1000 µM
Compound: OC12CC3C4CC5C6CC7CC5C(C4C1)C(C7)(C2)C63 [MDT-42]

Ki (NMDA receptor [2]; [5]): > 1000 µM
Compound: OC12CC3C4CC5C6CC7(O)CC5C(C4C1)C(C2)(C7)C36 [MDT-15]

Ki (NMDA receptor [2]; [5]): > 1000 µM
Compound: CC12CC3C4CC5(C)CC3C(C1)C(O)(C5)C4C2 [MDT-47, 4,9-dimethyl-1-hydroxydiamantane]

Relative affinity (NMDA receptor [2]): 0.007 | Ki (NMDA receptor [2]; [5]): 98.6 ± 0.1 µM
Compound: CC12CC3CC4C1CC1(O)CC2C(C3)C4(C)C1 [MDT-45, 1,6-dimethyl-4-hydroxydiamantane]

Ki (NMDA receptor [2]; [5]): > 1000 µM
Compound: O=NC12CC3CC4C5CC(CC41)CC2C5C3 [MDT-26]

EC50 [1, 6]: 15.7 ± 9.1 µM | Relative affinity (NMDA receptor [2]): 0.155 | Ki (NMDA receptor [2]; [5]): 4.7 ± 2.4 µM
Compound: CC12CC3C4CC5(C)CC3C(C1)C(N)(C5)C4C2 [MDT-51, 4,9-dimethyl-1-aminodiamantane]

Relative affinity (NMDA receptor [2]): 0.064 | Ki (NMDA receptor [2]; [5]): 11.4 ± 3.7 µM
Compound: mixture of 1-amino-4-methyldiamantane and 2-amino-4-methyldiamantane [MDT-32]

EC50 [1, 6]: 28.4 ± 12.8 µM | Relative affinity (NMDA receptor [2]): 0.143 | Ki (NMDA receptor [2]; [5]): 5.1 ± 0.7 µM
Compound: CC12CC3CC4C1CC1CC2C(N)(C3)C4(C)C1 (stereo not shown) [MDT-43, 1,6-dimethyl-2-aminodiamantane]

Ki (NMDA receptor [2]; [5]): > 1000 µM
Compound: OC12CC3C4CC5(O)CC3C(C1)C(C5)C4C2 [MDT-14]

EC50 [1, 6]: 34.3 ± 11.3 µM | Relative affinity (NMDA receptor [2]): 0.045 | Ki (NMDA receptor [2]; [5]): 13.4 ± 5.1 µM
Compound: CC12CC3CC4C5CC(N)(CC41)CC2C5C3 [MDT-24, 1-methyl-4-aminodiamantane]

Ki (NMDA receptor [2]; [4]): 389 µM | Relative affinity (NMDA receptor [2]): 0.002
Compound: NC12CC3C4CC5C6CC7CC5C(C4C1)C(C7)(C2)C63 [MDT-49, 9-amino-triamantane]
